Measured values from ChEMBL document CHEMBL1909046, “DrugMatrix in vitro pharmacology data”.

molecular target: Mitogen-activated protein kinase 14 (Homo sapiens, UniProt Q16539); experiment: not given; parameters: species or system Escherichia coli; conditions: not given;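 also: inhibition of p38alpha enzyme activity in a biochemical kinase assay, with myelin basic protein serving as substrate; in other assays of this panel Not Active means under 50% inhibition at 10 µM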
Sequence (Q16539 whole entry): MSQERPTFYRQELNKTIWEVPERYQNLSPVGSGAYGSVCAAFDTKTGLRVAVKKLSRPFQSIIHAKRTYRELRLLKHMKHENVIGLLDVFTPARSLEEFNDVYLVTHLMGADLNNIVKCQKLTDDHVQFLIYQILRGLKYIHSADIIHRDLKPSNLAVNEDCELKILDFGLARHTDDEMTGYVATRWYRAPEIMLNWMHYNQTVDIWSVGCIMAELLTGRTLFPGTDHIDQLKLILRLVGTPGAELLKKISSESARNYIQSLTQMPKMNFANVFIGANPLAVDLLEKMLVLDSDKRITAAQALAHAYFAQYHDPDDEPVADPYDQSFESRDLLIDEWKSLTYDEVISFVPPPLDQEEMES

Row | SMILES | IC50
1 | CC(C(=O)O)c1ccc(CC2CCCC2=O)cc1 (stereo not given) [LOXOPROFEN] | Not Active
2 | Cc1cccc(Nc2ccccc2C(=O)O)c1C [MEFENAMIC ACID] | Not Active
3 | COc1ccccc1OCC(O)COC(N)=O (stereo not given) [METHOCARBAMOL] | Not Active
4 | COC(=O)c1ccccc1O [METHYL SALICYLATE] | Not Active
5 | COc1ccc2cc(CCC(C)=O)ccc2c1 [NABUMETONE] | Not Active
6 | CNC(=C[N+](=O)[O-])NCCSCc1csc(CN(C)C)n1 [NIZATIDINE] | Not Active
7 | C[C@]12C/C(=C/O)C(=O)C[C@@H]1CC[C@@H]1[C@@H]2CC[C@@]2(C)[C@H]1CC[C@]2(C)O [OXYMETHOLONE] | Not Active
8 | CC(C)(CO)C(O)C(=O)NCCCO (stereo not given) [PANTHENOL] | Not Active
9 | COc1ccc(Cc2nccc3cc(OC)c(OC)cc23)cc1OC [PAPAVERINE] | Not Active

molecular target: Cytochrome P450 2C9 (Homo sapiens, UniProt P11712); experiment: not given; conditions: bti-tn-5b1-4; also: in other assays of this panel Not Active means under 50% inhibition at 10 µM
Sequence (P11712 whole entry): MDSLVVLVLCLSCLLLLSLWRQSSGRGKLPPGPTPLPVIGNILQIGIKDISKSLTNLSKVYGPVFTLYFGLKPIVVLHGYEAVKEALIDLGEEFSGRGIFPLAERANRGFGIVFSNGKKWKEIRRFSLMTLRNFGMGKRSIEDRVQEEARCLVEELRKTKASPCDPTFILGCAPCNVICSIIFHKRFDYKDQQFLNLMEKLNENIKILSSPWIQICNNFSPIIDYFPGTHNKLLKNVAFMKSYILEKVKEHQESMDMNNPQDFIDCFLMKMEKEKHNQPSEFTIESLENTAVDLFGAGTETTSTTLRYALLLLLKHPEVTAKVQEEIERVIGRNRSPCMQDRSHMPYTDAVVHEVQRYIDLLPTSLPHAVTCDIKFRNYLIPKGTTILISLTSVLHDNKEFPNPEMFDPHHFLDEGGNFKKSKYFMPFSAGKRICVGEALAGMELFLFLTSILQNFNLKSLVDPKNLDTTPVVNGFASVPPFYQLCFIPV

Row | SMILES | IC50 | Ki
10 | CC(C(=O)O)c1ccc(CC2CCCC2=O)cc1 (stereo not given) [LOXOPROFEN] | Not Active | Not Active
11 | Cc1cccc(Nc2ccccc2C(=O)O)c1C [MEFENAMIC ACID] | Not Active | Not Active
12 | COc1ccccc1OCC(O)COC(N)=O (stereo not given) [METHOCARBAMOL] | Not Active | Not Active
13 | COC(=O)c1ccccc1O [METHYL SALICYLATE] | Not Active | Not Active
14 | COc1ccc2cc(CCC(C)=O)ccc2c1 [NABUMETONE] | Not Active | Not Active
15 | CNC(=C[N+](=O)[O-])NCCSCc1csc(CN(C)C)n1 [NIZATIDINE] | Not Active | Not Active
16 | C[C@]12C/C(=C/O)C(=O)C[C@@H]1CC[C@@H]1[C@@H]2CC[C@@]2(C)[C@H]1CC[C@]2(C)O [OXYMETHOLONE] | Not Active | Not Active
17 | CC(C)(CO)C(O)C(=O)NCCCO (stereo not given) [PANTHENOL] | Not Active | Not Active
18 | COc1ccc(Cc2nccc3cc(OC)c(OC)cc23)cc1OC [PAPAVERINE] | Not Active | Not Active

molecular target: Delta-type opioid receptor (Homo sapiens, UniProt P41143); experiment: not given; assay type: cell membranes, HEK293, Membrane; conditions: hek293; also: in other assays of this panel Not Active means under 50% inhibition at 10 µM
Sequence (P41143 whole entry): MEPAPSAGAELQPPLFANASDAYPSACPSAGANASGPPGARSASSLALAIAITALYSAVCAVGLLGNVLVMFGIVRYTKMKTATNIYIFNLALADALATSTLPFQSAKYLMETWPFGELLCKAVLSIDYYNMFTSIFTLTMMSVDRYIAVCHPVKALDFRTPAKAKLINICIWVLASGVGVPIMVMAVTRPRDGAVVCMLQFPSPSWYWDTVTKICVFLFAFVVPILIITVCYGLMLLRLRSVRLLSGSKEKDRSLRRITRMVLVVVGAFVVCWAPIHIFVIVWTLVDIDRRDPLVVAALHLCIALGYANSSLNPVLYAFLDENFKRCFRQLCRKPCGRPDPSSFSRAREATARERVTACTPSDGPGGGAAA

Row | SMILES | IC50
19 | CC(C(=O)O)c1ccc(CC2CCCC2=O)cc1 (stereo not given) [LOXOPROFEN] | Not Active
20 | Cc1cccc(Nc2ccccc2C(=O)O)c1C [MEFENAMIC ACID] | Not Active
21 | COc1ccccc1OCC(O)COC(N)=O (stereo not given) [METHOCARBAMOL] | Not Active
22 | COC(=O)c1ccccc1O [METHYL SALICYLATE] | Not Active
23 | COc1ccc2cc(CCC(C)=O)ccc2c1 [NABUMETONE] | Not Active
24 | CNC(=C[N+](=O)[O-])NCCSCc1csc(CN(C)C)n1 [NIZATIDINE] | Not Active
25 | C[C@]12C/C(=C/O)C(=O)C[C@@H]1CC[C@@H]1[C@@H]2CC[C@@]2(C)[C@H]1CC[C@]2(C)O [OXYMETHOLONE] | Not Active
26 | CC(C)(CO)C(O)C(=O)NCCCO (stereo not given) [PANTHENOL] | Not Active
27 | COc1ccc(Cc2nccc3cc(OC)c(OC)cc23)cc1OC [PAPAVERINE] | Not Active

molecular target: T1, Leukotriene C4 synthase (Cavia porcellus, UniProt A6XA80); experiment: not given; assay type: tissue-based, Lung; conditions: not given;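 also: enzyme inhibition assay of leukotriene C4 synthase, using LTA4 as the substrate; in other assays of this panel Not Active means under 50% inhibition at 10 µM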
T1 sequence (A6XA80 whole entry): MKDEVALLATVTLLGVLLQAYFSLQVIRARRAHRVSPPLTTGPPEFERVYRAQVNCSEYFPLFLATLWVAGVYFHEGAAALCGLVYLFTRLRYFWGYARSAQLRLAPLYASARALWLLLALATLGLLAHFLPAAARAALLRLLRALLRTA

Row | SMILES | IC50
28 | CC(C(=O)O)c1ccc(CC2CCCC2=O)cc1 (stereo not given) [LOXOPROFEN] | Not Active
29 | Cc1cccc(Nc2ccccc2C(=O)O)c1C [MEFENAMIC ACID] | Not Active
30 | COc1ccccc1OCC(O)COC(N)=O (stereo not given) [METHOCARBAMOL] | Not Active
31 | COC(=O)c1ccccc1O [METHYL SALICYLATE] | Not Active
32 | COc1ccc2cc(CCC(C)=O)ccc2c1 [NABUMETONE] | Not Active
33 | CNC(=C[N+](=O)[O-])NCCSCc1csc(CN(C)C)n1 [NIZATIDINE] | Not Active
34 | C[C@]12C/C(=C/O)C(=O)C[C@@H]1CC[C@@H]1[C@@H]2CC[C@@]2(C)[C@H]1CC[C@]2(C)O [OXYMETHOLONE] | Not Active
35 | CC(C)(CO)C(O)C(=O)NCCCO (stereo not given) [PANTHENOL] | Not Active
36 | COc1ccc(Cc2nccc3cc(OC)c(OC)cc23)cc1OC [PAPAVERINE] | Not Active

molecular target: T2, Thromboxane-A synthase (Homo sapiens, UniProt P24557); experiment: biochemical; assay type: tissue-based, Platelet; conditions: platelet
T2 sequence (P24557 whole entry): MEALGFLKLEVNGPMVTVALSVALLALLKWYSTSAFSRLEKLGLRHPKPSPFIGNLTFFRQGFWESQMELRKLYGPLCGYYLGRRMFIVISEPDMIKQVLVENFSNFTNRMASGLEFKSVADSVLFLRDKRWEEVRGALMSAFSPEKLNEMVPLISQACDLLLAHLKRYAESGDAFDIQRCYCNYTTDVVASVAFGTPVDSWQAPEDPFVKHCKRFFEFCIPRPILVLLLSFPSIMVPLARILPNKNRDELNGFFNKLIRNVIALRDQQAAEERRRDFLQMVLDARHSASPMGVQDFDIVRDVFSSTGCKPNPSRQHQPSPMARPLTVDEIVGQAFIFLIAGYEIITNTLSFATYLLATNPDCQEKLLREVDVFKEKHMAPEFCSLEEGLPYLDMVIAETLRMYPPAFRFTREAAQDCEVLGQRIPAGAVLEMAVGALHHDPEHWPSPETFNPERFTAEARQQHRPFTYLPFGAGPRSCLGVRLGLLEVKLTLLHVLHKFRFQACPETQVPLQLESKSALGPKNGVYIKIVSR

Row | SMILES | IC50
37 | CC(C(=O)O)c1ccc(CC2CCCC2=O)cc1 (stereo not given) [LOXOPROFEN] | Not Active
38 | Cc1cccc(Nc2ccccc2C(=O)O)c1C [MEFENAMIC ACID] | Not Active
39 | COc1ccccc1OCC(O)COC(N)=O (stereo not given) [METHOCARBAMOL] | Not Active
40 | COC(=O)c1ccccc1O [METHYL SALICYLATE] | Not Active
41 | COc1ccc2cc(CCC(C)=O)ccc2c1 [NABUMETONE] | Not Active
42 | CNC(=C[N+](=O)[O-])NCCSCc1csc(CN(C)C)n1 [NIZATIDINE] | Not Active
43 | C[C@]12C/C(=C/O)C(=O)C[C@@H]1CC[C@@H]1[C@@H]2CC[C@@]2(C)[C@H]1CC[C@]2(C)O [OXYMETHOLONE] | Not Active
44 | CC(C)(CO)C(O)C(=O)NCCCO (stereo not given) [PANTHENOL] | Not Active
45 | COc1ccc(Cc2nccc3cc(OC)c(OC)cc23)cc1OC [PAPAVERINE] | Not Active

test system: not listed separately; experiment: DRUGMATRIX: Leukotriene, BLT (LTB4) radioligand binding (ligand: [3H]LTB4); assay type: cell membranes, Membrane; conditions: u-937; Not Active = under 50% inhibition at 10 µM

Row | SMILES | IC50 | Ki
46 | CC(C(=O)O)c1ccc(CC2CCCC2=O)cc1 (stereo not given) [LOXOPROFEN] | Not Active | Not Active
47 | Cc1cccc(Nc2ccccc2C(=O)O)c1C [MEFENAMIC ACID] | Not Active | Not Active
48 | COc1ccccc1OCC(O)COC(N)=O (stereo not given) [METHOCARBAMOL] | Not Active | Not Active
49 | COC(=O)c1ccccc1O [METHYL SALICYLATE] | Not Active | Not Active
50 | COc1ccc2cc(CCC(C)=O)ccc2c1 [NABUMETONE] | Not Active | Not Active
51 | CNC(=C[N+](=O)[O-])NCCSCc1csc(CN(C)C)n1 [NIZATIDINE] | Not Active | Not Active
52 | C[C@]12C/C(=C/O)C(=O)C[C@@H]1CC[C@@H]1[C@@H]2CC[C@@]2(C)[C@H]1CC[C@]2(C)O [OXYMETHOLONE] | Not Active | Not Active
53 | CC(C)(CO)C(O)C(=O)NCCCO (stereo not given) [PANTHENOL] | Not Active | Not Active
54 | COc1ccc(Cc2nccc3cc(OC)c(OC)cc23)cc1OC [PAPAVERINE] | Not Active | Not Active

molecular target: Epidermal growth factor receptor (Homo sapiens, UniProt P00533); experiment: DRUGMATRIX: Protein Tyrosine Kinase, EGF Receptor enzyme inhibition (substrate: Poly(Glu:Tyr)); assay type: cell-based, Insect cells; conditions: insect cells; Not Active = under 50% inhibition at 10 µM
Sequence (P00533 whole entry): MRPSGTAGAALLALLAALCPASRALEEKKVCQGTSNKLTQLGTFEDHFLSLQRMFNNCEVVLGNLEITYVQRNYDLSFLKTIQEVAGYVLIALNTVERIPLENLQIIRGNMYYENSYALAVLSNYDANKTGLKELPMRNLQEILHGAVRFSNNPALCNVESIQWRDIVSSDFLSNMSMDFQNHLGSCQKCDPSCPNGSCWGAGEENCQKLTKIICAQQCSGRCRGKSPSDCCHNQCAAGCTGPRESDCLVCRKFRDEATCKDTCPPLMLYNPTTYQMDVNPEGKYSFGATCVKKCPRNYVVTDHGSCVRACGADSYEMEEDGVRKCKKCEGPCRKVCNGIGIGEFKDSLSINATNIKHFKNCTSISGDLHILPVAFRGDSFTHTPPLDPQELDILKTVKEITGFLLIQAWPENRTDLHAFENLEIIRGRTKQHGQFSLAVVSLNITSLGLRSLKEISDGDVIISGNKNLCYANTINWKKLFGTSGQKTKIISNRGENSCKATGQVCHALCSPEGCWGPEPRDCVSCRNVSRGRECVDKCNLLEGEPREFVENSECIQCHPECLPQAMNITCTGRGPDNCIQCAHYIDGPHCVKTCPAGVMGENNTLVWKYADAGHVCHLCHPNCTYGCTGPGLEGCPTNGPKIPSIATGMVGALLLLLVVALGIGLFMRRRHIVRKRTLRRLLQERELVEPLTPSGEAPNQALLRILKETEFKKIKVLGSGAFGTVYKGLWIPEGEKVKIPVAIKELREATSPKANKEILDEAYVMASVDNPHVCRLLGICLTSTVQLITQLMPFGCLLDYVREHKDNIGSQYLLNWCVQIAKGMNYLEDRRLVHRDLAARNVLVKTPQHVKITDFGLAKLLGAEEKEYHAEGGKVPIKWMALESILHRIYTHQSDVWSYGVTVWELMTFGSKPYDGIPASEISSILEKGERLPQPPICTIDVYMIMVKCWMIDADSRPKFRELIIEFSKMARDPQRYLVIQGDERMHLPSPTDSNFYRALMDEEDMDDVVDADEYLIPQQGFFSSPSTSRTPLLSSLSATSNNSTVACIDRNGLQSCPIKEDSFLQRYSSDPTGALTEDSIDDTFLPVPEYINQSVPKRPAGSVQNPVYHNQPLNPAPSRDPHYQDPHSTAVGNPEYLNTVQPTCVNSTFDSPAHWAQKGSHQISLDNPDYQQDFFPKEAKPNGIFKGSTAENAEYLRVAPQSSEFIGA

Row | SMILES | IC50
55 | CC(C(=O)O)c1ccc(CC2CCCC2=O)cc1 (stereo not given) [LOXOPROFEN] | Not Active
56 | Cc1cccc(Nc2ccccc2C(=O)O)c1C [MEFENAMIC ACID] | Not Active
57 | COc1ccccc1OCC(O)COC(N)=O (stereo not given) [METHOCARBAMOL] | Not Active
58 | COC(=O)c1ccccc1O [METHYL SALICYLATE] | Not Active
59 | COc1ccc2cc(CCC(C)=O)ccc2c1 [NABUMETONE] | Not Active
60 | CNC(=C[N+](=O)[O-])NCCSCc1csc(CN(C)C)n1 [NIZATIDINE] | Not Active
61 | C[C@]12C/C(=C/O)C(=O)C[C@@H]1CC[C@@H]1[C@@H]2CC[C@@]2(C)[C@H]1CC[C@]2(C)O [OXYMETHOLONE] | Not Active
62 | CC(C)(CO)C(O)C(=O)NCCCO (stereo not given) [PANTHENOL] | Not Active
63 | COc1ccc(Cc2nccc3cc(OC)c(OC)cc23)cc1OC [PAPAVERINE] | Not Active

molecular target: T3, Muscarinic acetylcholine receptor M4 (Homo sapiens, UniProt P08173); experiment: not given; assay type: cell membranes, CHO-K1, Membrane; conditions: cho-k1; also: in other assays of this panel Not Active means under 50% inhibition at 10 µM
T3 sequence (P08173 whole entry): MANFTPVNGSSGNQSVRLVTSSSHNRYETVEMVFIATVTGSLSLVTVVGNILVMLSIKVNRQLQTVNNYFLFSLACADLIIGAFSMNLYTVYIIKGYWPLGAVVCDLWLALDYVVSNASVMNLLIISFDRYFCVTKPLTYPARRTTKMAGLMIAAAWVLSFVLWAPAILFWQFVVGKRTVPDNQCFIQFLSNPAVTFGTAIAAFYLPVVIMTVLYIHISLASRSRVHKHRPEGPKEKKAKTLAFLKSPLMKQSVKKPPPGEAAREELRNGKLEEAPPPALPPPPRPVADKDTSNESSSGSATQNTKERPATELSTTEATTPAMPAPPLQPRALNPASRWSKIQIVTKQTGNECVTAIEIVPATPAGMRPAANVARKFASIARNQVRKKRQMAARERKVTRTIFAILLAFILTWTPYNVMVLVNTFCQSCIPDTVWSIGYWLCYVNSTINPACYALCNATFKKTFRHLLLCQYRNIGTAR

Row | SMILES | IC50
64 | CC(C(=O)O)c1ccc(CC2CCCC2=O)cc1 (stereo not given) [LOXOPROFEN] | Not Active
65 | Cc1cccc(Nc2ccccc2C(=O)O)c1C [MEFENAMIC ACID] | Not Active
66 | COc1ccccc1OCC(O)COC(N)=O (stereo not given) [METHOCARBAMOL] | Not Active
67 | COC(=O)c1ccccc1O [METHYL SALICYLATE] | Not Active
68 | COc1ccc2cc(CCC(C)=O)ccc2c1 [NABUMETONE] | Not Active
69 | CNC(=C[N+](=O)[O-])NCCSCc1csc(CN(C)C)n1 [NIZATIDINE] | Not Active
70 | C[C@]12C/C(=C/O)C(=O)C[C@@H]1CC[C@@H]1[C@@H]2CC[C@@]2(C)[C@H]1CC[C@]2(C)O [OXYMETHOLONE] | Not Active
71 | CC(C)(CO)C(O)C(=O)NCCCO (stereo not given) [PANTHENOL] | Not Active
72 | COc1ccc(Cc2nccc3cc(OC)c(OC)cc23)cc1OC [PAPAVERINE] | Not Active
